Values quoted from earlier work in US8293779B2, “Mazindol combination in the treatment of attention deficit/hyperactivity” (Assistance Publique-Hopitaux de Paris, priority 2006, dated 2012).
Where two headings read alike, the source gives them in different places.

What was measured:
[1] = unlike amphetamine molecules
[2] = animal toxicology studies
[3] = after single or repeated oral administration

Q: With OC1(c2ccc(Cl)cc2)c2ccccc2C2=NCCN21 (centres unmarked) [mazindol, 5-(4-chlorophenyl)-2,5-dihydro-3H-imadazo[2,1-a]isoindol-5-ol] as the compound, how does the “cardiovascular modifications or stereotypes” value [1] read?
A: does not cause cardiovascular modifications or stereotypes

Q: And the “part of the dose still plasmatically effective” value (24 hours after taking)?
A: 75%

Q: And the plasmatic half-life time [3]?
A: 33 to 55 h

Q: And the tmax [3]?
A: 2 to 4 h

Q: What about the pharmacokinetics dose dependence (doses of between 1 mg/day and 4 mg/day) of the same compound?
A: linear (independent of the dose)

Q: What about the plasmatic half-life time (general statement) of the same compound?
A: greater than one day

Q: What about the “excretion in faeces (fraction)” value (in vivo) of the same compound?
A: ¼

Q: What about the “delay of absorption by taking food concomitantly” value (oral, with food) of the same compound?
A: approximately 1 hour

Q: And the “effect of food on total quantity absorbed” value (oral, with food)?
A: does not modify the total quantity absorbed

Q: And the “excretion in urine (fraction)” value (principal metabolism urinary)?
A: ¾

Q: What about the carcinogenic effect [2] of the same compound?
A: no carcinogenic effect

Q: What about the mutagenic effect [2] of the same compound?
A: no mutagenic effect

Q: And the toxic potential [2]?
A: very low

Q: And the “toxicology effect in reproduction” value [2]?
A: no toxicology effect in reproduction
